Laboratory results reported in ChEMBL document CHEMBL2321712 (ACS Med Chem Lett, 2013).
Activity calls are given as the source filed them. The calls are words filed in the database; no cut-off is given here.

Columns and labels:
[1] = target: Fibroblast growth factor receptor 1 (Homo sapiens, UniProt P11362); assay: Inhibition of FGFR1 (unknown origin); assay type: single protein
[2] = target: Cyclin-dependent kinase 4 (Homo sapiens, UniProt P11802); assay: Inhibition of CDK4 (unknown origin); assay type: single protein
Chain of Cyclin-dependent kinase 4 (P11802 whole entry): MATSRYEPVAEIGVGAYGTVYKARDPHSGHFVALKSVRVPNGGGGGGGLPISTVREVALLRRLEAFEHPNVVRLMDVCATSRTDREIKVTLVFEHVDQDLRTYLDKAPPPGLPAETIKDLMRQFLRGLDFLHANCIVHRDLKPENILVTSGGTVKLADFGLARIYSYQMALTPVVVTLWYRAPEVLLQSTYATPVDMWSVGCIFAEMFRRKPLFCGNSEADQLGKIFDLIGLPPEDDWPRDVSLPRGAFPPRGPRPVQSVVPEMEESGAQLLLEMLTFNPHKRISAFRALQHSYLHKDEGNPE

[3] = target: Vascular endothelial growth factor receptor 2 (Homo sapiens, UniProt P35968); assay: Inhibition of KDR (unknown origin); assay type: single protein
Chain of Vascular endothelial growth factor receptor 2 (P35968 whole entry): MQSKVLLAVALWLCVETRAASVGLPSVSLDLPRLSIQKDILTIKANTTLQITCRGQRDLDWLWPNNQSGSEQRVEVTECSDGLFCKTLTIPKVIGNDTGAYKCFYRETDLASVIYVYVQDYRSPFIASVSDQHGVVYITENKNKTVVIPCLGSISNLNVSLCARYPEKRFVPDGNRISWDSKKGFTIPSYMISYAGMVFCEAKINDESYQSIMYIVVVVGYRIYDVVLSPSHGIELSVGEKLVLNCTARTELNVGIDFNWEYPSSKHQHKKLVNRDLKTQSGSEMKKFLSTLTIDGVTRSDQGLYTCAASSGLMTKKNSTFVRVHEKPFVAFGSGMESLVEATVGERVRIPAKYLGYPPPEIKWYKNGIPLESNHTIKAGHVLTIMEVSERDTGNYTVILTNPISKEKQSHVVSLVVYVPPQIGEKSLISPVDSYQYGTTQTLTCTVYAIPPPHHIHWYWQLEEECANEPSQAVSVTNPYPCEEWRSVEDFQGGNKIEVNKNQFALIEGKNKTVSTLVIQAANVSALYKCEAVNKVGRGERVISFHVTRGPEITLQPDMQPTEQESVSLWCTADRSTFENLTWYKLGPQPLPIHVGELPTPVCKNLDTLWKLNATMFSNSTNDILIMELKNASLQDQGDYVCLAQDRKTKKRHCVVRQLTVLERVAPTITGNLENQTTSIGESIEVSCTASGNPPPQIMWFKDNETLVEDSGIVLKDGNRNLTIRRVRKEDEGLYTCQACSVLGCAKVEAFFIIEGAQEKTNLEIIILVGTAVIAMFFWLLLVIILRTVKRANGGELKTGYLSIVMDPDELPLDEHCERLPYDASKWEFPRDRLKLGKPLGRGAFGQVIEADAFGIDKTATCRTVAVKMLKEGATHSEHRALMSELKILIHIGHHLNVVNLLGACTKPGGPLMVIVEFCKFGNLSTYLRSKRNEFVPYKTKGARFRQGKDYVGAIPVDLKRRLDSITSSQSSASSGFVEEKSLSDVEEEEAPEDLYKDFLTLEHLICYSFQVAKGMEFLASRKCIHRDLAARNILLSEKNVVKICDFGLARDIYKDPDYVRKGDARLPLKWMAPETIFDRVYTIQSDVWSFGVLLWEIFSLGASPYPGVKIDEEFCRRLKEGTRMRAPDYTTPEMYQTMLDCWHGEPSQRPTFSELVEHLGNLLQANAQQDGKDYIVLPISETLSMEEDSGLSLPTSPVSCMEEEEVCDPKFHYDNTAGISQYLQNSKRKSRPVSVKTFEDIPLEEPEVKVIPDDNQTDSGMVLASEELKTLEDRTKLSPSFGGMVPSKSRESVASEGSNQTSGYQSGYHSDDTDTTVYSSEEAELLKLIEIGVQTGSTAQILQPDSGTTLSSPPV

[4] = target: Cyclin-dependent kinase 2 (Homo sapiens, UniProt P24941); assay: Inhibition of CDK2 (unknown origin); assay type: single protein
Mus musculus [5] = assay: Toxicity in human MDA-MB-231 cells xenografted mouse assessed as changes in body weight and gross observation at 25 to 50 mg/kg, po qd up to 32 days; assay type: organism-based; design: dose 25-50 mg/kg, route oral; conditions: in vivo, 768 h
[6] = AUC (0 to 24 hrs) in mouse at 25 mg/kg, po; assay type: ADME, organism-based; design: time < 24 hr, dose 25 mg/kg, route oral; conditions: plasma
MDA-MB-231 [7] = assay: Antitumor activity against human MDA-MB-231 cells xenografted in mouse assessed as tumor regression at 50 mg/kg, po qd up to 32 days; assay type: functional, organism-based; design: dose 50 mg/kg
[8] = Volume of distribution at steady state in mouse at 5 mg/kg, iv; assay type: ADME, organism-based; design: dose 5 mg/kg, route intravenous; conditions: in vivo, read-out: Vdss
[9] = Cmax in monkey at 10 mg/kg, po; assay type: ADME, organism-based, Macaca mulatta; design: dose 10 mg/kg, route oral; conditions: rhesus monkey, in vivo
Mus musculus [10] = assay: Toxicity in human HCT116 cells xenografted mouse assessed as changes in body weight and gross observation at 25 to 50 mg/kg, po qd up to 32 days; assay type: organism-based, HCT-116; design: dose 25-50 mg/kg, route oral; conditions: in vivo, 768 h
Mus musculus [11] = assay: Toxicity in human LoVo cells xenografted mouse assessed as changes in body weight and gross observation at 25 to 50 mg/kg, po qd up to 32 days; assay type: organism-based; design: dose 25-50 mg/kg, route oral; conditions: in vivo, 768 h
HUVEC [12] = assay: Antiangiogenic activity in HUVEC assessed as inhibition of bFGF-induced cell proliferation; assay type: functional, cell-based; conditions: Homo sapiens
[13] = Terminal half life in mouse at 5 mg/kg, iv; assay type: ADME, organism-based; design: dose 5 mg/kg, route intravenous; conditions: in vivo, read-out: beta t1/2 (converted)
MDA-MB-231 [14] = assay: Antitumor activity against human MDA-MB-231 cells xenografted in mouse assessed as tumor regression at 25 mg/kg, po qd up to 32 days; assay type: functional, organism-based; design: dose 25 mg/kg
[15] = Antiproliferative activity against human lung cancer cells by MTT assay; assay type: functional, cell-based; conditions: Cancer cell lines
[16] = Terminal half life in monkey at 1 mg/kg, iv; assay type: ADME, organism-based, Macaca mulatta; design: dose 1 mg/kg, route intravenous; conditions: rhesus monkey, in vivo, read-out: beta t1/2 (converted)
[17] = Volume of distribution at steady state in monkey at 1 mg/kg, iv; assay type: ADME, organism-based, Macaca mulatta; design: dose 1 mg/kg, route intravenous; conditions: rhesus monkey, in vivo, read-out: Vdss
[18] = Total clearance in mouse at 5 mg/kg, iv; assay type: ADME, organism-based; design: dose 5 mg/kg, route intravenous; conditions: in vivo
HUVEC [19] = assay: Antiangiogenic activity in HUVEC assessed as inhibition of VEGF-induced cell proliferation; assay type: functional, cell-based; conditions: Homo sapiens
[20] = Cmax in rat at 50 mg/kg, po; assay type: ADME, organism-based; design: dose 50 mg/kg, route oral; conditions: in vivo
HCT-116 [21] = assay: Antitumor activity against human HCT116 cells xenografted in mouse assessed as tumor growth inhibition at 1.56 mg/kg, po qd up to 32 days; assay type: functional, organism-based; design: dose 1.56 mg/kg
HCT-116 [22] = assay: Antitumor activity against human HCT116 cells xenografted in mouse assessed as increase in mouse survival at 25 to 50 mg/kg, po qd up to 32 days; assay type: functional; conditions: dose mg/kg 25-50
[23] = Antiproliferative activity against human prostate cancer cells by MTT assay; assay type: functional, cell-based; conditions: Cancer cell lines
A549 [24] = assay: Antitumor activity against human A549 cells xenografted in mouse assessed as tumor growth inhibition at 1.56 mg/kg, po qd up to 32 days; assay type: functional, organism-based; design: dose 1.56 mg/kg
LoVo = assay: Antitumor activity against human LoVo cells xenografted in mouse assessed as increase in mouse survival at 25 to 50 mg/kg, po qd up to 32 days; assay type: functional; conditions: dose mg/kg 25-50
[25] = Total clearance in rat at 5 mg/kg, iv; assay type: ADME, organism-based; design: dose 5 mg/kg, route intravenous; conditions: in vivo
[26] = AUC (0 to 24 hrs) in monkey at 10 mg/kg, po; assay type: ADME, organism-based, Macaca mulatta; design: time < 24 hr, dose 10 mg/kg, route oral; conditions: rhesus monkey, plasma
[27] = Tmax in monkey at 10 mg/kg, po; assay type: ADME, organism-based, Macaca mulatta; design: dose 10 mg/kg, route oral; conditions: rhesus monkey, in vivo
[28] = Antiproliferative activity against human oral epidermoid cancer cells by MTT assay; assay type: functional, cell-based; conditions: Cancer cell lines
Aurora kinase A = target: T1, Aurora kinase A (Homo sapiens, UniProt O14965); assay: Inhibition of aurora-A (unknown origin)
T1 sequence (O14965 whole entry): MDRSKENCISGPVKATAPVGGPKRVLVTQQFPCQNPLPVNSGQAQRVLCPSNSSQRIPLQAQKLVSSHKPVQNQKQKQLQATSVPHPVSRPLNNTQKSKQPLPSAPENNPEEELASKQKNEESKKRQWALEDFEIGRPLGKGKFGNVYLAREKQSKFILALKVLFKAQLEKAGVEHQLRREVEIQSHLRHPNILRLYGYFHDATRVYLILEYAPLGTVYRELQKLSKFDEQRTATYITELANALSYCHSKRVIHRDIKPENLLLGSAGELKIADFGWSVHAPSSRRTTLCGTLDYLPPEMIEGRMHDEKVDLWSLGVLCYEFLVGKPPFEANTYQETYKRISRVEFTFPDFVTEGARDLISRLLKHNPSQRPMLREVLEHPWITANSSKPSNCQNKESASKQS

22Rv1 (Homo sapiens) = assay: Antitumor activity against human 22Rv1 cells xenografted in mouse assessed as tumor growth inhibition at 25 to 50 mg/kg, po qd up to 32 days; conditions: dose mg/kg 25-50
[29] = Oral bioavailability in monkey at 10 mg/kg; assay type: ADME, organism-based, Macaca mulatta; conditions: rhesus monkey, in vivo
A549 [30] = assay: Antitumor activity against human A549 cells xenografted in mouse assessed as increase in mouse survival at 25 to 50 mg/kg, po qd up to 32 days; assay type: functional; conditions: dose mg/kg 25-50
MDA-MB-231 [31] = assay: Antitumor activity against human MDA-MB-231 cells xenografted in mouse assessed as increase in mouse survival at 25 to 50 mg/kg, po qd up to 32 days; assay type: functional; conditions: dose mg/kg 25-50
[32] = Antiproliferative activity against human melanoma cells by MTT assay; assay type: functional, cell-based; conditions: Melanoma cell
[33] = Tmax in rat at 50 mg/kg, po; assay type: ADME, organism-based; design: dose 50 mg/kg, route oral; conditions: in vivo
[34] = Antiproliferative activity against human breast cancer cells by MTT assay; assay type: functional, cell-based; conditions: Cancer cell lines
[35] = Volume of distribution at steady state in rat at 5 mg/kg, iv; assay type: ADME, organism-based; design: dose 5 mg/kg, route intravenous; conditions: in vivo, read-out: Vdss
[36] = Oral bioavailability in rat at 50 mg/kg; assay type: ADME, organism-based; conditions: in vivo
[37] = Tmax in mouse at 25 mg/kg, po; assay type: ADME, organism-based; design: dose 25 mg/kg, route oral; conditions: in vivo
[38] = Terminal half life in rat at 5 mg/kg, iv; assay type: ADME, organism-based; design: dose 5 mg/kg, route intravenous; conditions: in vivo, read-out: beta t1/2 (converted)
[39] = Cmax in mouse at 25 mg/kg, po; assay type: ADME, organism-based; design: dose 25 mg/kg, route oral; conditions: in vivo
HUVEC [40] = assay: Antiangiogenic activity in HUVEC assessed as inhibition of PDGF-induced cell proliferation; assay type: functional, cell-based; conditions: Homo sapiens
[41] = AUC (0 to 24 hrs) in rat at 50 mg/kg, po; assay type: ADME, organism-based; design: time < 24 hr, dose 50 mg/kg, route oral; conditions: plasma
[42] = Total clearance in monkey at 1 mg/kg, iv; assay type: ADME, organism-based, Macaca mulatta; design: dose 1 mg/kg, route intravenous; conditions: rhesus monkey, in vivo
MDA-MB-231 [43] = assay: Antitumor activity against human MDA-MB-231 cells xenografted in mouse assessed as tumor growth inhibition at 50 mg/kg, po qd up to 32 days; assay type: functional, organism-based; design: dose 50 mg/kg
[44] = Antiproliferative activity against human colon cancer cells by MTT assay; assay type: functional, cell-based; conditions: Cancer cell lines
Mus musculus [45] = assay: Toxicity in human A549 cells xenografted mouse assessed as changes in body weight and gross observation at 25 to 50 mg/kg, po qd up to 32 days; assay type: organism-based; design: dose 25-50 mg/kg, route oral; conditions: in vivo, 768 h
[46] = Oral bioavailability in mouse at 25 mg/kg; assay type: ADME, organism-based; conditions: in vivo

Chain of Fibroblast growth factor receptor 1 (P11362 whole entry): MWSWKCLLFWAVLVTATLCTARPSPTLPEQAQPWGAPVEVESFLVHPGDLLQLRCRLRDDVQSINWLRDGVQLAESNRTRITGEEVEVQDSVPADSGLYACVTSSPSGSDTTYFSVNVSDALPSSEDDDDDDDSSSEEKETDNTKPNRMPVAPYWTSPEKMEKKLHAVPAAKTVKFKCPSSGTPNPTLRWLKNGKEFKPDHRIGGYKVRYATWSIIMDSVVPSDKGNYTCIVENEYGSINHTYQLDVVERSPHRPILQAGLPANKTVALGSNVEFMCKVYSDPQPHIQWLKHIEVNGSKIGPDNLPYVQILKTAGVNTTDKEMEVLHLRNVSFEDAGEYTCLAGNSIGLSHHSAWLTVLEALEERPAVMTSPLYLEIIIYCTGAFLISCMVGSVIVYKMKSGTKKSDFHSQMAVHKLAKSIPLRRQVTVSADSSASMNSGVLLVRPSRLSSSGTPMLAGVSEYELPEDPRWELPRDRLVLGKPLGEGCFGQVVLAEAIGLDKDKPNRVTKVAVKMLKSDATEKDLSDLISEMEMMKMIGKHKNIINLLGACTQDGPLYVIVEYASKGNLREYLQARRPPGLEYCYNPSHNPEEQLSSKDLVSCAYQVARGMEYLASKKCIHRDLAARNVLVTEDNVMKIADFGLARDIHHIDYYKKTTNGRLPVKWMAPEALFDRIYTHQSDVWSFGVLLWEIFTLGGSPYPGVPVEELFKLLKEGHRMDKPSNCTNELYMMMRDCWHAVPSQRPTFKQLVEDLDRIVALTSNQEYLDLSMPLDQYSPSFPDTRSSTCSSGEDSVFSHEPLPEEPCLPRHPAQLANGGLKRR

## Cc1[nH]nc2c1N=C(c1ccccc1Cl)c1cc(N)ccc1N2
[1]
  IC50: 50 nM
[2]
  IC50: 303 nM
[3]
  IC50: 34 nM
[4]
  IC50: 88 nM

## COc1cc2c(cc1F)C(c1ccccc1Cl)=Nc1c(n[nH]c1C)N2 [RG-1530]
Mus musculus [5]
  Activity: Non-toxic
[1]
  IC50: 28 nM
[6]
  AUC(0-t) at 24 h: 46700 ng·h/mL
MDA-MB-231 [7]
  Activity: Active
[8]
  Vd: 3.12 L/kg
[9]
  Cmax: 406 ng/mL
Mus musculus [10]
  Activity: Non-toxic
Mus musculus [11]
  Activity: Non-toxic
HUVEC [12]
  IC50: 118 nM
[13]
  half-life: 4.32 h
MDA-MB-231 [14]
  Activity: Active
[15]
  IC50: 200 nM
[16]
  half-life: 3.83 h
[17]
  Vd: 1.59 L/kg
[18]
  clearance: 8.8 mL/min/kg
HUVEC [19]
  IC50: 49 nM
[20]
  Cmax: 5360 ng/mL
HCT-116 [21]
  TGI: inactive
HCT-116 [22]
  Survival: >=25%
[23]
  IC50: 200 nM
A549 [24]
  TGI: inactive
LoVo
  Survival: >=25%
[25]
  clearance: 8.78 mL/min/kg
[26]
  AUC(0-t) at 24 h: 4820 ng·h/mL
[27]
  Tmax: 4 h
[28]
  IC50: 200 nM
Aurora kinase A
  IC50: 58 nM
22Rv1 (Homo sapiens)
  TGI: 98%
[29]
  bioavailability: 22.1%
A549 [30]
  Survival: >=25%
MDA-MB-231 [31]
  Survival: >=25%
[32]
  IC50: 200 nM
[33]
  Tmax: 4 h
[34]
  IC50: 200 nM
[35]
  Vd: 3.22 L/kg
[36]
  bioavailability: 88.7%
[37]
  Tmax: 2 h
[38]
  half-life: 4.7 h
[39]
  Cmax: 5070 ng/mL
HUVEC [40]
  IC50: 688 nM
[41]
  AUC(0-t) at 24 h: 86300 ng·h/mL
[42]
  clearance: 7.82 mL/min/kg
MDA-MB-231 [43]
  TGI: Active
[44]
  IC50: 200 nM
Mus musculus [45]
  Activity: Non-toxic
[46]
  bioavailability: 96.9%
